Measured values reported in PMC5392761, “Discovery of Antimalarial Azetidine-2-carbonitriles That Inhibit P. falciparum Dihydroorotate Dehydrogenase” (ACS Medicinal Chemistry Letters, 2017).

Experiment: Mouse pharmacokinetics assay (IV and PO)
Format: in vivo, CD-1 mice
Conditions: mice

For `CCCNC(=O)N1[C@H](C#N)[C@H](c2ccc(-c3ccc(C(F)(F)F)c(C(F)(F)F)c3)cc2)[C@H]1CO` [Compound 27], the bioavailability (female, CD-1, mouse, in vivo, PO 5 mg/kg, IV 1 mg/kg, read-out: F, bioavailability) was 94%, the “C0, initial serum concentration at t = 0” value (IV 1 mg/kg) was 4.9 µM and the “Vss, volume of distribution at steady state” value (IV 1 mg/kg) was 0.37 L/kg. The Cmax (PO 5 mg/kg, read-out: Cmax, peak serum concentration) was 16.9 µM and the “DNAUC0-inf, dose-normalized area under the plasma concentration vs time curve” value (following PO dosing 5 mg/kg) was over 54.3 µM·h.
